Data on four molecules can be found in ChEMBL document CHEMBL1201862, “PubChem BioAssay data set” (2004).

Assay [1] is described as follows: human group III sPLA2 inhibitors, dose response, biochemical, QFRET, IC50 (AID 743457).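 Also: green fluorescence rise as the enzyme cleaves BODIPY PC-A2 in liposomes; potency for inhibition of the enzyme.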
Assay [2] can be described thus: NIH-3T3 fibroblast cytotoxicity, dose response, cytotoxicity control, cell-based, fluorescence, Alamar Blue, secondary assay (AID 2327).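 Also: NIH-3T3 mouse fibroblasts cultured with fluconazole at 8 µg/mL.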 The class given is functional. A general note: Resazurin is reduced to fluorescent resorufin, in cell work by metabolically active cells.
Assay [3] addresses Exodeoxyribonuclease V (Escherichia coli (strain K12), UniProt P04993+P07648+P08394). Description: E. coli RecBCD inhibitors, dose response, counter-screen for AddAB inhibitor project, absorbance, V66 E. coli, mutant T4 phage (AID 492957). The assay is classed as functional, cell-based, Escherichia coli str. K-12 substr. MG1655. (A counterscreen serves to expose hits that act by an unwanted route or on another target.)

In assay [4] the test system is Vero. Description: cells. The assay is classed as functional. To be noted: Chlorocebus sabaeus.
Assay [5] can be described thus: Counterscreen for AddAB inhibitors: absorbance-based bacterial cell-based high throughput dose response assay for inhibitors of bacterial viability. [Related pubchem assays (depositor defined):AID435030, AID449728, AID449731, AID488942, AID488955, AID488956]. The class given is functional.
The nature of assay [6]: C. albicans growth with fluconazole, confirmation, fluorescence, retest (AID 2467). The class given is functional, cell-based.
Assay [7] is described as follows: insulin promoter down-regulators in MIN6 cells, imaging, high-content screening, mouse beta cells (AID 1628). The class given is functional.
The nature of assay [8]: cytotoxicity in MIN6 insulinoma cells, dose response, cytotoxicity control, cell-based, mouse insulinoma (AID 2122).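 Also: confirmatory high-throughput counterscreen run to flag cytotoxic compounds; mouse MIN-6 beta cells carrying an insulin promoter eGFP reporter.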 The assay is classed as functional.
Assay [9] in a line: cytotoxicity in HMLE control line with eGFP shRNA, dose response, counter-screen for HMLE_sh_ECad selective toxicity project, cell-based, HMLE_sh_eGFP, luminescence (AID 463074).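 Also: HMLE human mammary epithelial cells expressing control shRNA against eGFP.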 The assay is classed as functional, Homo sapiens.
A short description of assay [10]: Luminescence Cell-Based Dose Retest to Confirm Inhibitors of Cancer Stem Cells. [Related pubchem assays (depositor defined):AID2717, AID2721]. The assay is classed as functional. To be noted: Homo sapiens.
Assay [11] deals with Sphingosine 1-phosphate receptor 5 (Homo sapiens, UniProt Q9H228). Description: Late stage counterscreen assay for S1P4 antagonists: Fluorescence dose response cell-based screening assay for antagonists of the Sphingosine 1-Phosphate Receptor 5 (S1P5). [Related pubchem assays (depositor defined):AID1510, AID1524, AID1692, AID1853, AID2332, AID489009, AID489017]. The class given is functional.
Sphingosine 1-phosphate receptor 5, sequence (Q9H228 whole entry): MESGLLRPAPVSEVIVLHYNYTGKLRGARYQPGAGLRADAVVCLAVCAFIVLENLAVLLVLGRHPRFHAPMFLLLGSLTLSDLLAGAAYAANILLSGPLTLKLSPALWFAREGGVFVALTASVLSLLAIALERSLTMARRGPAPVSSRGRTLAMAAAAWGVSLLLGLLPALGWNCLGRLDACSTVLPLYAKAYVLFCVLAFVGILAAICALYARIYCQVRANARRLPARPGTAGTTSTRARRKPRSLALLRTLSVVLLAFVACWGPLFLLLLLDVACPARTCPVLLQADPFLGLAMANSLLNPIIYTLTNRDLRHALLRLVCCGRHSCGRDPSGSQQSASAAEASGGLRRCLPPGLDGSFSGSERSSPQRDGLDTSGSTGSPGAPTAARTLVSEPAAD

The target in assay [12] is Sphingosine 1-phosphate receptor 1 (Homo sapiens, UniProt P21453). The assay is described as follows: Late stage counterscreen assay for S1P4 antagonists: Fluorescence dose response cell-based screening assay for antagonists of the Sphingosine 1-Phosphate Receptor 1 (S1P1). [Related pubchem assays (depositor defined):AID1510, AID1524, AID1692, AID1853, AID2332, AID489009, AID489017]. The class given is functional.
Sphingosine 1-phosphate receptor 1, sequence (P21453 whole entry): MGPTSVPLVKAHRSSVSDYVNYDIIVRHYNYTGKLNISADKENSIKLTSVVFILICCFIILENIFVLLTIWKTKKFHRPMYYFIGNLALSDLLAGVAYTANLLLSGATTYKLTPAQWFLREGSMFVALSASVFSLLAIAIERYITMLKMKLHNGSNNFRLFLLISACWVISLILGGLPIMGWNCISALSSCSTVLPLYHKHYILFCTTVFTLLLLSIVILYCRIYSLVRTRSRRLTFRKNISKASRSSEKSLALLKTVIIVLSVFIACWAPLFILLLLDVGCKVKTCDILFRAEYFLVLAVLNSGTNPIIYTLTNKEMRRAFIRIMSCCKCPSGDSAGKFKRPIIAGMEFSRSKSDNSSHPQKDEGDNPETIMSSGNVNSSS

In assay [13] the target is Sphingosine 1-phosphate receptor 2 (Homo sapiens, UniProt O95136). Description: Late stage counterscreen assay for S1P4 antagonists: Fluorescence dose response cell-based screening assay for antagonists of the Sphingosine 1-Phosphate Receptor 2 (S1P2). [Related pubchem assays (depositor defined):AID1510, AID1524, AID1692, AID1853, AID2332, AID489009, AID489017]. The assay is classed as functional.
Sphingosine 1-phosphate receptor 2, sequence (O95136 whole entry): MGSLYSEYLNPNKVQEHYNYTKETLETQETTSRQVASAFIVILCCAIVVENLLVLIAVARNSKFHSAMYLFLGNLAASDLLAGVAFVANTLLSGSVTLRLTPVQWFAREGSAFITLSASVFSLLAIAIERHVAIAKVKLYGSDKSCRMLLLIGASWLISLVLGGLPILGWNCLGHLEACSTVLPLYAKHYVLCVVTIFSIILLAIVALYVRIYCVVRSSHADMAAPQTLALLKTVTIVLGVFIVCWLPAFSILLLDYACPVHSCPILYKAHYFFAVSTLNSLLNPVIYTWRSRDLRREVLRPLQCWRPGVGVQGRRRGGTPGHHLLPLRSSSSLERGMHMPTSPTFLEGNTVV

For assay [14], the target named is Sphingosine 1-phosphate receptor 3 (Homo sapiens, UniProt Q99500). The assay is described as follows: Late stage counterscreen assay for S1P4 antagonists: Fluorescence dose response cell-based screening assay for antagonists of the Sphingosine 1-Phosphate Receptor 3 (S1P3). [Related pubchem assays (depositor defined):AID1510, AID1524, AID1692, AID1853, AID2332, AID489009, AID489017]. The class given is functional.
Sphingosine 1-phosphate receptor 3, sequence (Q99500 whole entry): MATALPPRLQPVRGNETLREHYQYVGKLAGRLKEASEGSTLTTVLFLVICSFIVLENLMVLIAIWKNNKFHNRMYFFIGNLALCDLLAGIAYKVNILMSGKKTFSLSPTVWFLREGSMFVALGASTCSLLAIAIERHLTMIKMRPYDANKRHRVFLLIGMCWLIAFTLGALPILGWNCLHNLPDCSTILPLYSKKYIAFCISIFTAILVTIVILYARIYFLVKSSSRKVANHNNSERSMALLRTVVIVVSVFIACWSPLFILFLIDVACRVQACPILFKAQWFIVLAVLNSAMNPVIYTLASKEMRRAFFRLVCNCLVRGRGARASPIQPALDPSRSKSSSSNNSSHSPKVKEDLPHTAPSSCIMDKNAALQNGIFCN

Activity calls are given as the source filed them.

Exodeoxyribonuclease V, sequence (P04993 whole entry): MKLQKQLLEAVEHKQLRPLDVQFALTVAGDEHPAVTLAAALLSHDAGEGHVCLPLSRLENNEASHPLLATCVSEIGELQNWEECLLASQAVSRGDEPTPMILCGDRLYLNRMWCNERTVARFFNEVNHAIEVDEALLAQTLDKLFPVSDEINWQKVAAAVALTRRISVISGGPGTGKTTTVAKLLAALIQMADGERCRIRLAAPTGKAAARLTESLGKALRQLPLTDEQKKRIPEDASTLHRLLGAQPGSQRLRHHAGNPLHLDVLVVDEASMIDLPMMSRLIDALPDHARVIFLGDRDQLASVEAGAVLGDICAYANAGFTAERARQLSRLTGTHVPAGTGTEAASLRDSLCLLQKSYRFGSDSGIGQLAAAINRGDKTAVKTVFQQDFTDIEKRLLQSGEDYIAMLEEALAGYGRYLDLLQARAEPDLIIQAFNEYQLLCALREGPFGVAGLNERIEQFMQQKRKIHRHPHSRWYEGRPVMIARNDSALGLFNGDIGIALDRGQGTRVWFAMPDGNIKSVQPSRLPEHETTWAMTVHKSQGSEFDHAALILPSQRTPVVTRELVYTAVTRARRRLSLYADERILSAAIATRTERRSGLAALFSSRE
Exodeoxyribonuclease V, sequence (P07648 whole entry): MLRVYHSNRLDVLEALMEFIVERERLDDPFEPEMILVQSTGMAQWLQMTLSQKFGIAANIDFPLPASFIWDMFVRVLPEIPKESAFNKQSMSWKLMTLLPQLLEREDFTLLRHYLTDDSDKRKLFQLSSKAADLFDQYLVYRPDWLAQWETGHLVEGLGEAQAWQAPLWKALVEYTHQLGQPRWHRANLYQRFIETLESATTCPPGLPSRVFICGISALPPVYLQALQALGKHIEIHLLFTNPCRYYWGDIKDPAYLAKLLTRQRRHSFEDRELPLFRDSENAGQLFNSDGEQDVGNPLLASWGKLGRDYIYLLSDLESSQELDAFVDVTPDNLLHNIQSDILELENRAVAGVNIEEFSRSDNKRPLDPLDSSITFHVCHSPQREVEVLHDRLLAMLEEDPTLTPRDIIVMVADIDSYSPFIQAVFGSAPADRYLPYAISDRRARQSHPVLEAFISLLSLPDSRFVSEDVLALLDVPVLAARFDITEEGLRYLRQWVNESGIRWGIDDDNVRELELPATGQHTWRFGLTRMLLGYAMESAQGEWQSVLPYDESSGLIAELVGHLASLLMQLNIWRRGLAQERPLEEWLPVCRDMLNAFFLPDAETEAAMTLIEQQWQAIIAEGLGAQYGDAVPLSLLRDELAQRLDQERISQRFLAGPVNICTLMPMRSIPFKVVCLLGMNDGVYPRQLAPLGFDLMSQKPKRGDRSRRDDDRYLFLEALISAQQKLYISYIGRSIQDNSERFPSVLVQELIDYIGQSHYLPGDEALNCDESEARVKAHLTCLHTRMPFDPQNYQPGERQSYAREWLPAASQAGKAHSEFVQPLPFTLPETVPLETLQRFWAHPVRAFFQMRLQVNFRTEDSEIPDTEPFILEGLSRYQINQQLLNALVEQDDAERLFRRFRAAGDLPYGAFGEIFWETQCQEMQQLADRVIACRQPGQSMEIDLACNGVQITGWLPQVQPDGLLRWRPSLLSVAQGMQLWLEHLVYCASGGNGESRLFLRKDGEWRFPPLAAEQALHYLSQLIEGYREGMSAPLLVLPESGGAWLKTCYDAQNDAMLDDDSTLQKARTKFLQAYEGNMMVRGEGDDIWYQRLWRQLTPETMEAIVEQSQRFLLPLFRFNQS
Exodeoxyribonuclease V, sequence (P08394 whole entry): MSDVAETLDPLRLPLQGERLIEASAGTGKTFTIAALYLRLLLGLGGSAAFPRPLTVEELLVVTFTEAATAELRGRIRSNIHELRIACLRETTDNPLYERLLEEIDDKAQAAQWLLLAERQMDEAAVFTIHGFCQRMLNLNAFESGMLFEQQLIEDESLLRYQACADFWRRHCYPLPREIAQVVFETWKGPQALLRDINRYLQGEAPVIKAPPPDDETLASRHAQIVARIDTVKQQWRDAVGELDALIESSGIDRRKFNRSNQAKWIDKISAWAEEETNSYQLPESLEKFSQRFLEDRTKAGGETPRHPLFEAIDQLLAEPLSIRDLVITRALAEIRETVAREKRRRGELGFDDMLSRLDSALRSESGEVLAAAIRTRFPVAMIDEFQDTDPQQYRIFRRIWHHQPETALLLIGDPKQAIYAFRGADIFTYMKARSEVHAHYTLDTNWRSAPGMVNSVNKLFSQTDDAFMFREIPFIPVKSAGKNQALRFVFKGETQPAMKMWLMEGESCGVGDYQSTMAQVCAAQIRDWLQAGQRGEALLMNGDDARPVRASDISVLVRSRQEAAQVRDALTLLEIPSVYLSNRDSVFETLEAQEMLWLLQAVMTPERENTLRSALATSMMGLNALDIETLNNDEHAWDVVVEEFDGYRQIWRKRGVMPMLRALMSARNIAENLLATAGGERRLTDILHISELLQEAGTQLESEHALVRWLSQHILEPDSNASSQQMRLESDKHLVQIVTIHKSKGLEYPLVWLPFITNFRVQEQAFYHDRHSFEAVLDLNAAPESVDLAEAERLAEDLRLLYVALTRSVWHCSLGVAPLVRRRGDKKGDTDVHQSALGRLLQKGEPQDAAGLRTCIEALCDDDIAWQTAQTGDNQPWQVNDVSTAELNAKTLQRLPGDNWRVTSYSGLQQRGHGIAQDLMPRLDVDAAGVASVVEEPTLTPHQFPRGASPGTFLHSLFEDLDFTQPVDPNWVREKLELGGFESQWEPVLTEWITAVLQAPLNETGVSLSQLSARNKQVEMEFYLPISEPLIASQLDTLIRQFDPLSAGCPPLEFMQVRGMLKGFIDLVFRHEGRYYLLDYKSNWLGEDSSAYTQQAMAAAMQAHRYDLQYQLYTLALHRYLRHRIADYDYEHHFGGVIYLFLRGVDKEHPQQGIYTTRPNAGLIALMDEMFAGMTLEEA

With `O=C(NC(=S)NNC(=O)c1cc2ccccc2cc1O)c1ccco1`, the IC50 – broadly, the concentration that gives 50% inhibition – in assay [1] is > 40.6 µM (inactive); in assay [3] it was > 119 µM (inactive); in assay [5], > 119 µM (inactive). Besides, the EC50 (usually the concentration needed to bring the measured effect to its halfway point) in assay [2] is > 160 µM (inactive); in assay [6] it was 2.19 µM (active). Besides, the CC50 (usually the concentration giving 50% cytotoxicity) in assay [4] was 14.4 µM (active).

With `CCn1c(SCc2ccccc2)nnc1-c1cccs1`, the IC50 in assay [7] was 3.63 µM (active); in assay [8], 2.36 µM (active).

As to `Cc1ccc(-c2ccc(OC(=O)c3ccc(O)nc3)c(C)c2)cc1`, the AC50 (usually the concentration at which the activity in the assay is half-maximal) in assay [9] is 29.1 µM (active); in assay [10], 17.5 µM (active).

For `COc1cccc(OC)c1NC(=O)c1ccc(-c2cc(Cl)ccc2Cl)o1`, the IC50 in assay [11] was > 25 µM (inactive); in assay [12], > 25 µM (inactive); in assay [13] it was 20.7 µM (inactive); in assay [14] it was 10.5 µM (inactive).
